Results as given in article PMC8582287 (International journal of antimicrobial agents, 2020).
pEC50: −log10 of the molar value. Entries after “also recorded” stand apart in the source; their conditions may differ. Where two headings read alike, the source gives them in different places.

Assays:
[1] = system: CRL-8155 (lymphocyte) cells; test: Cytotoxicity in CRL-8155 cells, Alamar Blue; assay type: cell-based, human; conditions: read-out: Cytotoxicity CC50 CRL-8155, 48h
N. caninum tachyzoites [2] = conditions: read-out: Proliferation EC50 N.caninum
HepG2 (hepatocyte) cells = test: Cytotoxicity in HepG2 cells, Alamar Blue; assay type: cell-based, human; conditions: read-out: Cytotoxicity CC50 HEP-G2, 48h
[3] = system: zebrafish (Danio rerio) embryos; test: Zebrafish embryo development test with impact score Si; assay type: in vivo; conditions: for Embryo toxicity in the zebrafish assay (in words) / Lowest concentration exerting a negative Si: 0.2-50 μM; for Embryo toxicity in the zebrafish assay (in words): 96hpf; for Embryonal alterations observed during BKI-exposure: 24h, representative image; for Lowest concentration exerting a negative Si: zebrafish embryos, until 96h post fertilization
[4] = system: Neospora-infected pregnant mice; conditions: 50mg/kg, ref [23]; cited from earlier work
rats = conditions: when dosed in rats; no reference given; cited from earlier work
pregnant BALB/c mice [5] = test: Assessment of BKI-interference in pregnancy in non-infected mice; conditions: for Offspring mortality (dead/born pups): 50 mg/kg/day oral gavage for 5 days, follow-up 14 days
[6] = system: human Ether-à-go-go Related Gene (hERG); conditions: cited from earlier work
[7] = system: human foreskin fibroblasts (HFF); test: Cytotoxicity in human foreskin fibroblasts, Alamar blue; assay type: cell-based; conditions: read-out: Cytotoxicity CC50 HFF, 3 days, 0.0009-20 μM
pregnant BALB/c mice [8] = conditions: mouse, in vivo, 50 mg/kg/day
[9] = system: T. gondii oocyst infection; conditions: pregnant CD1 mice, ref [20]; cited from earlier work
N. caninum tachyzoites [10] = conditions: read-out: Proliferation EC50 N.caninum, ref [25]; cited from earlier work
[11] = 50 mg/kg/day oral gavage in corn oil for 5 days

| SMILES | CC50 [1] [µM] | pEC50 (N. caninum tachyzoites [2]) | CC50 (HepG2 (hepatocyte) cells) [µM] | Embryo toxicity in the zebrafish assay (in words) [3] | Fertility (pregnant/mated females) (pregnant BALB/c mice [5]; [11]) | CC50 [7] [µM] | Offspring mortality (dead/born pups) (pregnant BALB/c mice [5]) | other results |
| --- | --- | --- | --- | --- | --- | --- | --- | --- |
| CCOc1ccc2cc(-c3nn(C(C)(C)C)c(N)c3C(N)=O)cnc2c1 [BKI-1517] | > 40 | 6.57 | > 40 | high toxicity at all concentrations | ^*2/7 | > 20 | – | Embryonal alterations observed during BKI-exposure ([3]; 20 μM): tail curvature; also recorded: half-hatched embryo; Embryonal alterations observed during BKI-exposure ([3]; 50 μM): pericardial edema; Lowest concentration exerting a negative Si ([3]; listed as 1517): 0,2 μM; Lowest concentration exerting a negative Si ([3]; listed as -1517): 0.2 µM; Neonatal mortality [4]: 100%; Change in mean arterial pressure (rats): significant change in mean arterial pressure; hERG inhibition in vitro ([6]; no reference given): did not inhibit |
| CCOc1ccc2cc(-c3nn(CC4CCN(C)CC4)c4ncnc(N)c34)ccc2n1 [BKI-1369] | > 80 | 7.46 | > 80 | very low embryo toxicity | 5/6 | > 20 | 0/31 | Pups/dams (pregnant BALB/c mice [5]; [11]): 31/5 |
| CCOc1ccc2cc(-c3nn(CC4CCN(C)CC4)c4ncnc(N)c34)ccc2c1 [BKI-1294] | > 40 | – | > 40 | very low embryo toxicity | – | > 20 | 0/27 | Overall number of pups born (pregnant BALB/c mice [8]): 27; Pups/dams (pregnant BALB/c mice [8]; po): 27/4; Offspring survival [9]: 100%; Lowest concentration exerting a negative Si [3]: ≥ 40 µM; Lowest concentration exerting a negative Si ([3]; listed as 1294): 40 µM; hERG inhibition in vitro ([6]; ref [24]): inhibited; pEC50 (N. caninum tachyzoites [10]): 7.40 |
